Peptide text beside a SMILES is read from it. * marks the point of attachment. X1 = CC(C)C[C@@H](CS(N)(=O)=O)N*
Test: Compound was tested for inhibition of anti-beta-endorphin monoclonal antibody by using ELISA assay.
Assay type: functional

SMILES | IC50 [µM]
CC(C)C[C@H](NC(=O)[C@H](Cc1ccccc1)NS(=O)(=O)CCNC(=O)CNC(=O)[C@@H](N)Cc1ccc(O)cc1)C(N)=O | 85
CC(C)C[C@H](NS(=O)(=O)C[C@H](Cc1ccccc1)NC(=O)CNC(=O)CNC(=O)[C@@H](N)Cc1ccc(O)cc1)C(=O)O | 5
CC(C)C[C@H](NC(=O)[C@H](Cc1ccccc1)NC(=O)CNS(=O)(=O)CCNC(=O)[C@@H](N)Cc1ccc(O)cc1)C(=O)O | > 200
CC(C)C[C@H](NC(=O)[C@H](Cc1ccccc1)NS(=O)(=O)CCNC(=O)CNC(=O)[C@@H](N)Cc1ccc(O)cc1)C(=O)O | > 200
CC(C)C[C@H](NC(=O)[C@H](Cc1ccccc1)NC(=O)CNS(=O)(=O)CCNC(=O)[C@@H](N)Cc1ccc(O)cc1)C(N)=O | 75
CC(C)C[C@H](NC(=O)[C@H](Cc1ccccc1)NC(=O)CNC(=O)CNC(=O)[C@@H](N)Cc1ccc(O)cc1)C(N)=O [[LEU5]ENKEPHALIN] | 0.07
CC(C)C[C@@H](CS(N)(=O)=O)NC(=O)[C@H](Cc1ccccc1)NC(=O)CNC(=O)CNC(=O)[C@@H](N)Cc1ccc(O)cc1 (H-YGGF-X1) | 0.1
CC(C)C[C@H](NS(=O)(=O)C[C@H](Cc1ccccc1)NC(=O)CNC(=O)CNC(=O)[C@@H](N)Cc1ccc(O)cc1)C(N)=O | 0.9
